Assay results from US20260325485A1, “COMPOSITIONS AND METHODS FOR TREATING PANCREATITIS” (The United States Government as represented by the …, priority 2022, published 2026).

Legend:
LC3-II = assay: Autophagic flux analysis: LC3-II immunoblot in pancreatic acinar cells; assay type: cell-based, mouse; settings: 30 minutes
Procedure: FIGS. 2A-2L show Gnptab ablation stimulates autophagosome formation and blocks autophagic flux in pancreatic acinar cells. Parameters of autophagy were measured in WT and […] pancreatic (A-C) acinar cells and (D-L) tissue. (A-C) Acinar cells incubated for 30 minutes with and without bafilomycin A1 (BafA1; 20 nM); LC3-II band intensity was quantified by densitometry, normalized to ERK in the same sample, and LC3-II/ERK ratios further normalized to untreated WT cells (control). Values are mean±SEM; each symbol represents an individual cell preparation (n=4-6 per condition). sP<0.05; paired 2-tailed Student's t test. (D) IB analysis of autophagic markers/mediators. Ub, ubiquitylated proteins. (E-K) Immunofluorescence colocalization analysis for LC3 and LAMP1 (E, G, and H), and LC3 and Stx17 (F and I-K) in WT and KO pancreas. In this and other figures, colocalization was quantified with Volocity software using Manders-Costes (percentage colocalization) and Pearson's coefficients. Values are mean±SEM; each symbol corresponds to 20 to 30 cells in a different field (n=6-9 fields from 3 mice per condition). ***P<0.001 vs. WT; 2-tailed Student's t test. (L). EM showing abnormally large autolysosomes with partially degraded material in pancreas of KO mice. Scale bars: 10 μm (E and F) and 3 μm (L).
To further assess the effects of Gnptab KO on autophagy, autophagic flux analysis was performed by measuring changes in LC3-II in acinar cells incubated with and without the lysosomal v-ATPase inhibitor, bafilomycin A1 (BafA1) (FIG. 2, A-C). The number of autophagic vacuoles in a cell is a net balance between autophagosome formation and their degradation through autophagic flux. Thus, the increase in LC3-II observed in KO pancreas (FIG. 1F and FIG. 2D; see also FIG. 17G) could have resulted from both induction of autophagosome formation and the inhibition of flux. […]
Immunoblots were developed using enhanced chemiluminescence detection kit (Pierce), and band intensities were quantified by densitometry using FluorChem HD2 imaging system (Alpha Innotech/ProteinSimple).

neutral lipids = assay: BODIPY 493/503 staining of neutral lipids in acinar cells; assay type: cell-based, mouse; settings: BafA1 20 nM
Procedure: FIGS. 13A-13G show neutral lipids accumulate in LE/Ly and autophagic compartments of Gnptab^−/− pancreas. Characteristics of neutral lipid metabolism were measured in (A-C,F,G) pancreatic tissue of WT, Gnptab^−/− (KO) and Atg5^Δpan mice, and (D,E) WT and KO acinar cells treated with Bafilomycin A1 (BafA1; 20 nM). (A) EM showing lipid inclusions in KO pancreas. (B-E) Tissue or cells were stained with BODIPY 493/503 for neutral lipids; BODIPY fluorescence intensity was quantified with Volocity software, normalized to the number of nuclei (DAPI) in the field, and expressed relative to WT control. […] (F,G) Perilipins (PLINs) were analyzed by immunoblot; their band intensities were densitometrically quantified, normalized to GAPDH in the same sample and, further, to WT. […] Significance was determined by 2-tailed Student's t test (G) or 1-way ANOVA followed by Tukey's multiple comparisons test (C,E). […]
All fluorescence images were acquired with a Zeiss LSM710 confocal microscope using x63 objective and preset within-experiment image acquisition settings. Quantitative fluorescence analysis was performed with Volocity software (PerkinElmer). Overlap between 2 fluorescent labels was measured using Manders-Costes coefficient. Pearson's colocalization coefficient was calculated if both immunolabeled proteins had the same (e.g. “dotted”) staining pattern.

trypsin = assay: Trypsin activity in Gnptab−/− acinar cells; assay type: cell-based, mouse; settings: 3 hours; 50 μM CA-074Me or 20 nM BafA1
Procedure: FIGS. 6A-6R show mechanisms mediating increased trypsin activity in Gnptab−/− pancreas. Trypsin activity and its regulation were analyzed in pancreatic (A, C, and D) tissue, (B and P-R) acinar cells, (E-H and O) lobules, and (I-N) subcellular fractions. In B, acinar cells were incubated for 3 hours without and with 20 nM BafAl or 50 μM CatB inhibitor CA-074Me; in P-R, with the cholesterol chelator methyl-β-cyclodextrin (MCD) at the indicated concentrations. In E-H, pancreatic lobules were double stained for TAP and LC3 or LAMP2; in O, for TAP and filipin. Quantitative colocalization analysis was done as detailed in FIG. 2. Each symbol in A, B, J-N, Q, and R represents an individual mouse or cell preparation (n=3-8 per condition). Each symbol in D, G, and H corresponds to 20 to 30 cells in a different field (n=9-20 fields from 3 WT and 3 KO mice or lobule preparations). Values are mean±SEM. **P<0.01, ***P<0.001 vs. WT tissue/lobules (A, G, and H) or corresponding WT subcellular fraction (K and M). ##P<0.01 vs. no inhibitors (B) or MCD (Q and R). ††P<0.01, †††P<0.001 vs. the other two fractions (L and N). Significance was determined by 2-tailed Student's t test (A, G, and H) or 1-way ANOVA followed by Tukey's multiple comparison test (B, K-N, Q, and R). Scale bars: 10 μm.
Activities of cathepsin (Cat) B and L, caspase-3, trypsin, and lysosomal acid lipase (LAL) were measured in pancreatic tissue or cell homogenates and subcellular fractions with fluorogenic assays using substrates specific for CatB (Z-Arg-Arg-AMC), CatL (Z-Phe-Arg-AMC), caspase-3-like ([…]), trypsin (Boc-Gln-Ala-Arg-AMC), as previously described (1-4, 6, 7); and for LAL (4-methylumbelliferyl oleate), as in (17). In measurements of CatL activity, the assay buffer also contained 50 μM CA-074me, a CatB inhibitor. LAL activity was measured in the absence and presence of the LAL inhibitor lalistat (100 μM) as the difference between these values (17).

pancreas = assay: Pancreatic total cholesterol and lipids in acute pancreatitis models in WT mice; assay type: in vivo, mouse; settings: Arg-AP, CER-AP or CDE-AP
Procedure: FIGS. 8A-8M show derangement of cholesterol metabolism in experimental pancreatitis. Characteristics of cholesterol metabolism were measured, as detailed in FIGS. 4A-4R, in pancreas of WT mice subjected to pancreatitis induced with cerulein (CER-AP), L-arginine (Arg-AP), or CDE diet (CDE-AP) (A, B, and E-G); ex vivo pancreatitis induced in WT mouse (C and I-M) or human acinar cells (D) with 100 nM CCK (CCK-AP) or 1 mM carbachol; and isolated pancreatic mitochondria (H). (B) Cholesterol ester (CE) heatmap; each column represents an individual mouse. (F) IB analysis of the indicated proteins. (G) LAL activity was measured by a fluorogenic assay (n=6 mice per condition). (H) Cholesterol content was measured by enzymatic assay. (I-M) Filipin colocalization with indicated proteins was quantified as detailed in FIGS. 2A-2L. Each symbol in A, C-E, and H represents an individual mouse, or cell or mitochondria preparation (n=3-15 per condition). Each symbol in J, K, and M corresponds to 20-30 cells in a different field (n=10-20 fields from 3 cell preparations per condition). Values are mean±SEM. *P<0.05, **P<0.01, ***P<0.001 vs. the same parameter in control/untreated pancreas, acinar cells or isolated mitochondria. Significance was determined by 2-tailed Student's t test (B, E, H, J, K, and M) or 1-way ANOVA followed by Tukey's multiple comparison test (A, C, and D). Scale bars: 10 μm.
Parameters of cholesterol metabolism were measured in (A, B, E, F) pancreas of mice subjected to pancreatitis induced with cerulean (CER-AP), L-arginine (Arg-AP), or combination of EtOH+palmitoleic acid (EtOH+POA); and (C) ex-vivo models on mouse and human acinar cells treated for 1 h with 100 nM CCK, […] or 500 μM TLCS. […] (B, C) Total cholesterol content was measured with cholesterol assay kit (Abcam, ab65390). […] Signficance was determined by 2-tailed student's t test. […]
Total cholesterol content was measured with Cholesterol Assay kit per manufacturer's instructions. […]
Triglycerides (TAG) content was measured using Triglyceride Assay kit. […]

SMILES	LC3-II levels in KO compared with WT in presence of BafA1 (LC3-II; BafA1 20 nM, Gnptab−/− vs WT acinar cells)	LC3-II increase by BafA1, KO (LC3-II; Gnptab−/− (KO) acinar cells, 20 nM)	LC3-II increase by BafA1, WT (LC3-II; WT acinar cells, 20 nM)	BODIPY staining, KO (neutral lipids; Gnptab−/− acinar cells)	BODIPY staining increase, WT (neutral lipids; WT acinar cells)	Reduction of trypsin activity, Gnptab−/− acinar cells (trypsin)	pancreatic total cholesterol, AP models (pancreas)
CO/C1=C\C(C)=C\[C@@H](C)[C@@H](O)[C@@H](C)C/C(C)=C/C=C/[C@H](OC)[C@@H]([C@@H](C)[C@@H](O)[C@H](C)[C@@]2(O)C[C@@H](O)[C@H](C)[C@@H](C(C)C)O2)OC1=O [BafA1, bafilomycin A1]	approximately 11 fold	no increase	approximately 4 fold	no additional effect	approximately 3 fold	by half	–
N=C(N)NCCC[C@H](N)C(=O)O [L-arginine]	–	–	–	–	–	–	increases
